Measurements as given in PubChem BioAssay (NCI).
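Compound exposure: 48 hours, 5 concentrations, 96-well plates. GI50 = concentration required for 50% inhibition of growth. Definition used: TGI = concentration required for complete inhibition of growth.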

Assays:
Assay in all cases: DTP human tumour cell line panel, 48 h
[1] = system: NCI-H460 lung
[2] = system: TK-10 renal
[3] = system: MOLT-4 leukemia
[4] = system: MALME-3M melanoma
[5] = system: OVCAR-5 ovarian
[6] = system: K-562 leukemia
[7] = system: SN12C renal
[8] = system: LOX IMVI melanoma
[9] = system: MDA-MB-231 breast
[10] = system: BT-549 breast

SMILES	TGI [1]	TGI [2]	TGI [3]	TGI [4]	TGI [5]	TGI [6]	TGI [7]	TGI [8]	TGI [9]	TGI [10]	GI50 [1]	GI50 [9]	GI50 [2]	GI50 [3]	GI50 [4]	GI50 [5]	GI50 [6]	GI50 [10]	GI50 [7]
C[C@]12CC=CC(=O)[C@@]1(C)CCC(=O)C2	> 100 µM	> 100 µM	> 100 µM	> 100 µM	> 100 µM	> 100 µM	> 100 µM	–	–	–	–	–	–	–	–	–	–	–	–
COc1cc(NCC(C#N)C#N)ccc1N=Nc1ccc(Cl)cc1	52.9 µM	73 µM	39.8 µM	71.4 µM	44.4 µM	50.5 µM	> 100 µM	36.1 µM	–	–	–	–	–	–	–	–	–	–	–
COc1cc(NS(=O)(=O)c2ccc(C)cc2)c2nccnc2c1	> 100 µM	> 100 µM	52.3 µM	> 100 µM	> 100 µM	> 100 µM	> 100 µM	> 100 µM	–	–	–	–	–	–	–	–	–	–	–
CN(C)CCOc1ccc([N+](=O)[O-])c2cccnc12	> 100 µM	> 100 µM	> 100 µM	> 100 µM	> 100 µM	> 100 µM	> 100 µM	–	> 100 µM	> 100 µM	–	–	–	–	–	–	–	–	–
C=C(C)[C@@H]1CC[C@]2(COCCCN)CC[C@]3(C)[C@H](CC[C@@H]4[C@@](C)(CCCNCCCN)[C@H](C(=C)C)CC[C@]43C)[C@@H]12	3.44 µM	3.15 µM	4.47 µM	3.12 µM	3.12 µM	3.57 µM	2.96 µM	–	3.29 µM	29.6 µM	1.8 µM	1.8 µM	1.68 µM	1.96 µM	1.66 µM	1.71 µM	1.67 µM	10.6 µM	1.58 µM
COC(=O)C(=O)CC(=O)CCn1[nH]c(=O)c(Cl)c(Cl)c1=O	> 100 µM	> 100 µM	–	> 100 µM	> 100 µM	> 100 µM	> 100 µM	> 100 µM	–	–	–	–	–	–	–	–	–	–	–
CC(=O)Oc1cc2c(cc1OC(C)=O)C1(C)CCC2(C)c2cc(OC(C)=O)c(OC(C)=O)cc21	50 µM	76.6 µM	96.1 µM	> 100 µM	80.9 µM	81.8 µM	> 100 µM	> 100 µM	–	–	–	–	–	–	–	–	–	–	–
Cc1cn(C2CC(OC(=O)c3ccc(Cl)cc3)C(COC(=O)c3ccc(Cl)cc3)O2)c(=O)[nH]c1=O (centres undefined)	> 100 µM	> 100 µM	> 100 µM	> 100 µM	> 100 µM	> 100 µM	> 100 µM	> 100 µM	–	> 100 µM	–	–	–	–	–	–	–	–	–
O=C1C=C(Nc2ccccc2C(=O)CC(=O)C(=O)Nc2cccc([N+](=O)[O-])c2)c2ccccc2C1=O	> 100 µM	> 100 µM	> 100 µM	46.7 µM	> 100 µM	> 100 µM	81.8 µM	23.1 µM	–	–	–	–	–	–	–	–	–	–	–
O=C1N/C(=C\[N+](=O)[O-])c2ccccc21	> 100 µM	> 100 µM	> 100 µM	> 100 µM	> 100 µM	> 100 µM	> 100 µM	> 100 µM	–	–	–	–	–	–	–	–	–	–	–
CC(=O)c1ccc(NC(=O)/C(CC(=O)c2sc(-c3cccnc3)nc2C)=N/NC(N)=O)cc1	> 100 µM	–	46 µM	> 100 µM	> 100 µM	> 100 µM	> 100 µM	> 100 µM	–	–	–	–	–	–	–	–	–	–	–
NC1=NN(c2ccccc2)C(=O)C1C(=O)CCC(=O)Nc1cccc(Cl)c1 (centres undefined)	> 100 µM	> 100 µM	–	> 100 µM	> 100 µM	> 100 µM	> 100 µM	> 100 µM	–	–	–	–	–	–	–	–	–	–	–
